Assays:
Assay type in all cases: biochemical
Conditions in all cases: kinase assay by one of methods A, B or C
[1] = target: T1, BTK (Homo sapiens, UniProt Q06187); assay: Btk in vitro inhibitory activity / inhibition of a panel of kinases (TR-FRET, mobility shift or radiometric filter binding)
T1 construct: purified from insect cells as a full-length construct containing a N-terminal 6×-His tag; His6 (N); made in house; host or cells: insect cells (baculovirus, Sf21)

[2] = target: LCK (Homo sapiens, UniProt P06239); assay: Inhibition of a panel of kinases: LCK
Chain of LCK (P06239 whole entry, species assumed): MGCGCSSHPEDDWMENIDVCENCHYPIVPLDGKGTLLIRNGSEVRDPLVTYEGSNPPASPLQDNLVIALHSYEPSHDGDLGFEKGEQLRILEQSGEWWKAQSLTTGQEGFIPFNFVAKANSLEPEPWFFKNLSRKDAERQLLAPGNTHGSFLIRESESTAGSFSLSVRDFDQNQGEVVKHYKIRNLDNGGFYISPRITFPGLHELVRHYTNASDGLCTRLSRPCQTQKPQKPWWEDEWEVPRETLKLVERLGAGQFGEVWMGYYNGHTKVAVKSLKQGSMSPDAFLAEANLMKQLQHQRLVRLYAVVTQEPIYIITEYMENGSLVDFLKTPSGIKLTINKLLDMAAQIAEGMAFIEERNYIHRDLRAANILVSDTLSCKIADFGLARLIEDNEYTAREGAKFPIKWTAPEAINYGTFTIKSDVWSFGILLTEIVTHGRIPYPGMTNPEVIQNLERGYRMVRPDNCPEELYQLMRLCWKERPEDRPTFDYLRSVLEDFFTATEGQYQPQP
Description: (§1) Btk kinase activity is determined using a time-resolved fluorescence resonance energy transfer (TR-FRET) methodology. Measurements are performed in a reaction volume of 50 μL using 96-well assay plates. Kinase enzyme, inhibitor, ATP (at the Km for the kinase), and 1 μM peptide substrate (Biotin-AVLESEEELYSSARQ-NH2) are incubated in a reaction buffer composed of 20 mM Tris, 50 mM NaCl, MgCl2 (5-25 mM depending on the kinase), MnCl2 (0-10 mM), 1 mM DTT, 0.1 mM EDTA, 0.01% bovine serum albumin, 0.005% Tween-20, and 10% DMSO at pH 7.4 for one hour. The reaction is quenched by the addition of 1.2 equivalents of EDTA (relative to divalent cation) in 25 μL of 1× Lance buffer (Perkin-Elmer). Streptavidin-APC (Perkin-Elmer) and Eu-labeled p-Tyr100 antibody (Perkin-Elmer) in 1× Lance buffer are added in a 25 μL volume to give final concentrations of 100 nM and 2.5 nM, respectively, and the mixture is allowed to incubate for one hour. The TR-FRET signal is measured on a multimode plate reader with an excitation wavelength (λEx) of 330 nm and detection wavelengths (λEm) of 615 and 665 nm. Activity is determined by the ratio of the fluorescence at 665 nm to that at 615 nm. For each compound, enzyme activity is measured at various concentrations of compound. Negative control reactions are performed in the absence of inhibitor in replicates of six, and two no-enzyme controls are used to determine baseline fluorescence levels. Inhibition constants, Ki(app), ware obtained using the program BatchKi (Kuzmic et al. (2000), Anal. Biochem. 286:45-50). IC50s are obtained according to the equation: IC50={Ki(app)/(1+[ATP]/Km^ATP)}+[E]total/2;
(§2) For all kinases, [ATP]=Km^ATP, [Btk]total=0.5 nM and [Lck]total=6 nM.
(§3) Kinase activity is measured in vitro using electrophoretic mobility shift assay. The kinase reactions are assembled in a total volume of 25 μL in 384 well plates. The reactions comprise: BTK enzyme (1 nM, N-terminal His6-tagged, recombinant, full-length, human BTK purified from baculovirus Sf21 insect cell system), inhibitor, ATP ([…] the apparent Km for the kinase), fluorescently labeled peptide substrate (1 μM, FAM-GEEPLYWSFPAKKK-NH2) in a reaction buffer composed of 100 mM HEPES, pH7.5, 5 mM MgCl2 1 mM DTT, 0.1% bovine serum albumin, 0.01% Triton X-100, and 1% DMSO. The reaction is incubated for one hour and is quenched by the addition of 45 μL of termination buffer (100 mM HEPES, pH7.5, 0.01% Triton X-100, 30 mM EDTA). The terminated reactions are analyzed using 12 channel LabChip® 3000 microfluidic detection instrument (Caliper Life Sciences). The enzymatic phosphorylation of the peptide results in a change in net charge, enabling electrophoretic separation of product from substrate peptide. As substrate and product peptides are separated, two peaks of fluorescence are observed. Change in the relative fluorescence intensity of the substrate and product peaks is the parameter measured, reflecting enzyme activity. In the presence of an inhibitor, the ratio between product and substrate is altered: the signal of the product decreases, while the signal of the substrate increases.
(§4) Activity in each sample is determined as the product to sum ratio (PSR):P/(S+P), where P is the peak height of the product peptide and S is the peak height of the substrate peptide. For each compound, enzyme activity is measured at various concentrations (12 concentrations of compound spaced by 3× dilution intervals). Negative control samples (0%-inhibition in the absence of inhibitor) and positive control samples (100%-inhibition, in the presence of 20 mM EDTA) are assembled in replicates of four and are used to calculate %-inhibition values for each inhibitor at each concentration. Percent inhibition (Pinh) is determined using following equation: […]

[3] = target: EGFR (Homo sapiens, UniProt P00533); assay: Inhibition of a panel of kinases: EGFR
Chain of EGFR (P00533 25-1210, species assumed): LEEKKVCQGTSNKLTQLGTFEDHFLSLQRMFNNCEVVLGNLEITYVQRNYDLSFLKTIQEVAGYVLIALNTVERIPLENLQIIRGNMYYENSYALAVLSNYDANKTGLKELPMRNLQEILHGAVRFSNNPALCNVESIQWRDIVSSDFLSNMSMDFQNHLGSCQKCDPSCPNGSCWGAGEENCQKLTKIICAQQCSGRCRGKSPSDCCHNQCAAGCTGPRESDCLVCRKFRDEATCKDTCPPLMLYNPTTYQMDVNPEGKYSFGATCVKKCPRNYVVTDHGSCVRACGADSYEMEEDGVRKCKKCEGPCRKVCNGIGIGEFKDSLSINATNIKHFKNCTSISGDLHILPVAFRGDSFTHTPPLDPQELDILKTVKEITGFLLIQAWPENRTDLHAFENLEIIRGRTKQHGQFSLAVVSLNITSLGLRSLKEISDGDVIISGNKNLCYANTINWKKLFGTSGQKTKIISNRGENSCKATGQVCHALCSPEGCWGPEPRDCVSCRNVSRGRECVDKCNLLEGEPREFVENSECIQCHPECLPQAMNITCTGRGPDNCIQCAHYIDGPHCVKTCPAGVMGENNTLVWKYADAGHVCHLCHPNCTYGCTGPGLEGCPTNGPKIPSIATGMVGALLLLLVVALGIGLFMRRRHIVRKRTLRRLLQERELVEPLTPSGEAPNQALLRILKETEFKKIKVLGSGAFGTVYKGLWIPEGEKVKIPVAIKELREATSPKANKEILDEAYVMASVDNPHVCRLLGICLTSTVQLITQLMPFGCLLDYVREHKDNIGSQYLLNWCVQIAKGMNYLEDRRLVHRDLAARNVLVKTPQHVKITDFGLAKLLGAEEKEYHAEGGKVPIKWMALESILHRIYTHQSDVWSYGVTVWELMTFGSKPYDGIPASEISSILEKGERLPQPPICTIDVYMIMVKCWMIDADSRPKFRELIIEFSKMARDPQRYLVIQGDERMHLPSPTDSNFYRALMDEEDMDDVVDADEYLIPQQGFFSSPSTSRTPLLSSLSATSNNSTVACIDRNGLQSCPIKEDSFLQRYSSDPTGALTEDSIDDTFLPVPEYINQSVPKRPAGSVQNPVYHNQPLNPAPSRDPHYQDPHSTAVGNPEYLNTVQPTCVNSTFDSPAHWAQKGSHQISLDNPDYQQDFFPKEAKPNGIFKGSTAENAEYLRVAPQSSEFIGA
Description: as §1, §2, §3, §4

T1 sequence (Q06187 whole entry): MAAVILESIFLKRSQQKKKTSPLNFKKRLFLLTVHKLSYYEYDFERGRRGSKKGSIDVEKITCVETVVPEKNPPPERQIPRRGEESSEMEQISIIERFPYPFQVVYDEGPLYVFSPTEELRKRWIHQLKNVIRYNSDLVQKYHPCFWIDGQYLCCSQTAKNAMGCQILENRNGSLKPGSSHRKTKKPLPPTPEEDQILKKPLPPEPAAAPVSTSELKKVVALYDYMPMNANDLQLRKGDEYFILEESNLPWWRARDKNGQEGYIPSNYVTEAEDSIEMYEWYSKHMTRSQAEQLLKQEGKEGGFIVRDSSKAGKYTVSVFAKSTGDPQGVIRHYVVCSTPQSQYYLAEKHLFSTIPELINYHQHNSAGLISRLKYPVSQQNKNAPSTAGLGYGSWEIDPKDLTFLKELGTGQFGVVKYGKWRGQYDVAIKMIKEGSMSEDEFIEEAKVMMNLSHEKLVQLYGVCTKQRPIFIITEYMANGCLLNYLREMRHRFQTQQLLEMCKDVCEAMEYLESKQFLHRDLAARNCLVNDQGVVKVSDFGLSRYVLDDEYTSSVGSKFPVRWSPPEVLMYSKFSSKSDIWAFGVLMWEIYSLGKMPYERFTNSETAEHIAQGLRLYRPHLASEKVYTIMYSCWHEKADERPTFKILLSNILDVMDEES

IC50 [1] | IC50 [2] | IC50 [3] | Compound
< 100 nM | 100 to 1000 nM | < 100 nM | C=CC(=O)N1CC[C@@H](n2c(OC)c(-c3ccc(Cl)cc3)c3c(N)ncnc32)C1 [Compound 46, (R)-1-(3-(4-amino-5-(4-chlorophenyl)-6-methoxy-7H-pyrrolo[2,3-d]pyrimidin-7-yl)pyrrolidin-1-yl)prop-2-en-1-one]
< 100 nM | < 100 nM | 1000 to 10000 nM | Cc1c(-c2ccc(Oc3ccccc3)cc2)c2c(N)ncnc2n1[C@@H]1CCN(C(=O)/C=C/CN(C)C2CC2)C1 [Compound 12, (R,E)-1-(3-(4-amino-6-methyl-5-(4-phenoxyphenyl)-7H-pyrrolo[2,3-d]pyrimidin-7-yl)pyrrolidin-1-yl)-4-(cyclopropyl(methyl)amino)but-2-en-1-one]
< 100 nM | 100 to 1000 nM | < 100 nM | C=CC(=O)N1CC[C@@H](n2c(C)c(-c3ccc(Cl)cc3)c3c(N)ncnc32)C1 [Compound 44, (R)-1-(3-(4-amino-5-(4-chlorophenyl)-6-methyl-7H-pyrrolo[2,3-d]pyrimidin-7-yl)pyrrolidin-1-yl)prop-2-en-1-one]
< 100 nM | 1000 to 10000 nM | 1000 to 10000 nM | CN(C(=O)/C=C/CN(C)C1CC1)c1cccc(-n2c(Cl)c(-c3ccc(Cl)cc3)c3c(N)ncnc32)c1 [Compound 23, (E)-N-(3-(4-amino-6-chloro-5-(4-chlorophenyl)-7H-pyrrolo[2,3-d]pyrimidin-7-yl)phenyl)-4-(cyclopropyl(methyl)amino)-N-methylbut-2-enamide]
< 100 nM | < 100 nM | 1000 to 10000 nM | CN(C)C/C=C/C(=O)N1CC[C@@H](n2c(Cl)c(-c3ccc(Oc4ccccc4)cc3)c3c(N)ncnc32)C1 [Compound 14, (R,E)-1-(3-(4-amino-6-chloro-5-(4-phenoxyphenyl)-7H-pyrrolo[2,3-d]pyrimidin-7-yl)pyrrolidin-1-yl)-4-(dimethylamino)but-2-en-1-one]
< 100 nM | < 100 nM | 1000 to 10000 nM | CN(C/C=C/C(=O)N1CC[C@@H](n2c(Cl)c(-c3ccc(Oc4ccccc4)cc3)c3c(N)ncnc32)C1)C1CC1 [Compound 8, (R,E)-1-(3-(4-amino-6-chloro-5-(4-phenoxyphenyl)-7H-pyrrolo[2,3-d]pyrimidin-7-yl)pyrrolidin-1-yl)-4-(cyclopropyl(methyl)amino)but-2-en-1-one]
< 100 nM | 100 to 1000 nM | < 100 nM | C=CC(=O)N1CC[C@@H](n2c(F)c(-c3ccc(Cl)cc3)c3c(N)ncnc32)C1 [Compound 42, (R)-1-(3-(4-amino-5-(4-chlorophenyl)-6-fluoro-7H-pyrrolo[2,3-d]pyrimidin-7-yl)pyrrolidin-1-yl)prop-2-en-1-one]

— patent publication US9540385B2, “Pyrrolopyrimidine compounds as kinase inhibitors” (Pharmacyclics LLC, priority 2012, dated 2017)
